Earlier results on 23 molecules are cited in patent US20170051350A1, “METHOD AND SYSTEM TO PREDICT RESPONSE TO TREATMENTS FOR MENTAL DISORDERS” (Pathway Genomics Corporation, priority 2013, published 2017).

Like-named read-outs stand apart in the source and are kept apart here.

Series [1] relates to CYP2D6. To be noted: cited from earlier work.
The target in series [2] is T1, HTR2C (Homo sapiens, UniProt P28335).
T1 construct: endogenous in cells; host or cells: patients (in vivo)
T1 sequence (P28335 33-458): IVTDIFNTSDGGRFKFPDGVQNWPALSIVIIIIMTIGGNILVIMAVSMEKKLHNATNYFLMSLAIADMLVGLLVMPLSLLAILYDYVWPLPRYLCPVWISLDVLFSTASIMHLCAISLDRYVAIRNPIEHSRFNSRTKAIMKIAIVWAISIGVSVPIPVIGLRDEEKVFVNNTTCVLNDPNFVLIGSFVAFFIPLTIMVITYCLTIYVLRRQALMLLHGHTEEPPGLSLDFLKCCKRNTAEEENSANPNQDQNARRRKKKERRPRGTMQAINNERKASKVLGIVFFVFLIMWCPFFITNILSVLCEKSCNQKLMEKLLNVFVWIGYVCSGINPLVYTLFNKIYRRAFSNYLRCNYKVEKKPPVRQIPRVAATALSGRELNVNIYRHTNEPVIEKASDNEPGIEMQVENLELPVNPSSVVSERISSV
As to conditions: HTR2C rs3813929 T/C, T (outcome: reduced weight gain); cited from earlier work.

In series [3] the test system is genes affecting efficacy. To be noted: cited from earlier work; for depression improvement (Category): BDNF rs61888800, full wording: Depression may improve more than average, source PMID 20435227 Suppl Table 3a.
Series [4] has as its system genes affecting adverse reactions. To be noted: source PMID 20435227 Suppl Table 3c, cited from earlier work.
Series [5] deals with HLA genotypes. To be noted: cited from earlier work.
Setting [6] is: CYP2D6 Intermediate Metabolizer.

With `CN(C)CCC=C1c2ccccc2CCc2ccccc21` [Amitriptyline], in series [1] (setting [6]), the “plasma concentrations (drug, or drug combined with its active metabolite)” value was “may have increased” and the “risk of adverse effects” value is given as “increased risk”. In series [1] (CYP2D6 Poor Metabolizer), the “plasma concentrations (drug, or drug combined with its active metabolite)” value is listed as “increased plasma” and the “risk of adverse effects” value is “increased risk”.

On to `CN1CC2c3ccccc3Oc3ccc(Cl)cc3C2C1` (stereo not drawn) [Asenapine], for which, in series [2], the “risk of weight gain” value was “Patient has decreased risk of weight gain if treated with atypical antipsychotics, including asenapine (PMID 19636338,”.

Consider `CNCCCN1c2ccccc2CCc2ccccc21` [Desipramine], for which the “plasma concentrations (drug, or drug combined with its active metabolite)” value in series [1] (setting [6]) is recorded as “Patient may have increased plasma concentrations of desipramine at standard doses (PMID 9049581, PMID 3816019,”; in series [1] (CYP2D6 Poor Metabolizer), “Patient's genotype is associated with increased plasma concentrations of desipramine at standard doses (PMID”. The “risk of adverse effects” value in series [1] (CYP2D6 Poor Metabolizer) is 9049581, PMID 3816019, PMID 10895986), which may increase risk of adverse effects. The “depression improvement (Category)” value in series [3] was “Depression may improve”.

Regarding `CN(C)CCC=C1c2ccccc2COc2ccccc21` [Doxepin], the figures for the “plasma concentrations (drug, or drug combined with its active metabolite)” value in series [1] (setting [6]), in series [1] (CYP2D6 Poor Metabolizer) and in series [1] (CYP2D6 Ultrarapid Metabolizer) were “may have increased”, “increased” and “Patient's genotype is associated with decreased plasma concentrations of doxepin. Consider alternative medications,”, respectively. The “risk of adverse effects” value in series [1] (setting [6]) and in series [1] (CYP2D6 Poor Metabolizer) was “may increase the risk” each time.

`CNCC[C@H](Oc1cccc2ccccc12)c1cccs1` [Duloxetine]: the “plasma concentrations (drug, or drug combined with its active metabolite)” value is on record as “Patient may have increased plasma concentrations of duloxetine at standard doses (PMID 17380590, 17713974)” in series [1] (setting [6]) and “Patient may have increased plasma concentrations of duloxetine at standard doses (PMID 17380590, 17713974)” in series [1] (CYP2D6 Poor Metabolizer).

On to `CNCCC(Oc1ccc(C(F)(F)F)cc1)c1ccccc1` (stereo not drawn) [Fluoxetine], for which the “depression improvement (Category)” value in series [3] is “Depression may improve”.

For the molecule `O=C(CCCN1CCC(O)(c2ccc(Cl)cc2)CC1)c1ccc(F)cc1` [Haloperidol], the “plasma concentrations (drug, or drug combined with its active metabolite)” value in series [1] (setting [6]) is recorded as “Patient may have increased plasma concentrations of haloperidol (PMID 12386646, 10519444, 10096261)”. Further, in series [1] (CYP2D6 Poor Metabolizer), the “plasma concentrations of reduced haloperidol” value is given as “fluphenazine, quetiapine, olanzapine or clozapine (PMID 21412232). Patient's genotype is associated with increased”; the “risk of adverse effects” value is “Patient has increased risk of extrapyramidal symptoms and other adverse effects. Consider reducing the dose or”. Also, the “risk of extrapyramidal symptoms” value in series [1] (CYP2D6 Ultrarapid metabolizer, in one study) is “In one study, individuals with this patient's CYP2D6 metabolizer status had a slightly increased risk of extrapyramidal”.

In the case of `O=C1[C@@H]2[C@H]3CC[C@H](C3)[C@@H]2C(=O)N1C[C@@H]1CCCC[C@H]1CN1CCN(c2nsc3ccccc23)CC1` [Lurasidone], the “risk of weight gain” value in series [2] was “Patient has decreased risk of weight gain if treated with atypical antipsychotics, including lurasidone (PMID 19636338,”.

`CN1CCN2c3ncccc3Cc3ccccc3C2C1` (stereo not drawn) [Mirtazapine]: the “plasma concentrations (drug, or drug combined with its active metabolite)” value is “Patient may have increased plasma concentrations of mirtazapine, though it is unclear if increased plasma” in series [1] (setting [6]) and “Patient may have increased plasma concentrations of mirtazapine at standard doses, though it is unclear if increased” in series [1] (CYP2D6 Poor Metabolizer).

With `CNCCC=C1c2ccccc2CCc2ccccc21` [Nortriptyline], the entries for the “plasma concentrations (drug, or drug combined with its active metabolite)” value in series [1] (setting [6]), in series [1] (CYP2D6 Poor Metabolizer) and in series [1] (CYP2D6 Ultrarapid Metabolizer) were “Patient's genotype is associated with increased plasma concentrations of nortriptyline at standard doses (PMID”, “Patient's genotype is associated with increased plasma concentrations of nortriptyline at standard doses (PMID” and “Patient's genotype is associated with decreased plasma concentrations of nortriptyline at standard doses (PMID”, respectively. In addition, the “Escitalopram, Nortriptyline, response (Category)” value in series [3] (NR3C1 rs10482633, full wording: Depression may not respond as well, source PMID 20435227 Suppl Table 3b) is “Depression may not respond”.

Turning to `Cc1cc2c(s1)Nc1ccccc1N=C2N1CCN(C)CC1` [Olanzapine], the “Olanzapine, weight gain (Category)” value in series [4] (ADRB3 rs4994, ADRB3:Trp64Arg) is on record as “Less likely to gain weight”; in series [4] (GNB3 rs5443, GNB3:825C > T), “More likely to gain weight”; in series [4] (HTR2A rs6313, HTR2A:T102C), “More likely to gain weight”; in series [4] (HTR2C rs6318, HTR2C:Cys23Ser), “More likely to gain weight”; in series [4] (HTR2C rs518147, HTR2C: −697G/C), “Less likely to gain weight”.

As to `Fc1ccc([C@@H]2CCNC[C@H]2COc2ccc3c(c2)OCO3)cc1` [Paroxetine], the “risk of adverse effects” value in series [1] (setting [6]) was “paroxetine, which may increase risk of sexual dysfunction (PMID 8880055, 12870705, 1531950)”; in series [1] (CYP2D6 Poor Metabolizer), “Patient may have increased risk of drug-drug interactions [PMID 16476833] and sexual dysfunction [PMID 12870705]”.

Consider `OCCN1CCN(CCCN2c3ccccc3Sc3ccc(Cl)cc32)CC1` [Perphenazine], for which the “plasma concentrations (drug, or drug combined with its active metabolite)” value is listed as “Patient's genotype is associated with increased plasma concentrations of perphenazine (PMID 17429316, 8612387),” in series [1] (setting [6]); “Patient's genotype is associated with increased plasma concentrations of perphenazine (PMID 17429316, 8612387,” in series [1] (CYP2D6 Poor Metabolizer); “Patient's genotype is associated with decreased plasma concentrations of perphenazine” in series [1] (CYP2D6 Ultrarapid Metabolizer). Further, the “risk of adverse effects” value in series [1] (CYP2D6 Poor Metabolizer) was 8689810), which may increase risk of adverse effects (FDA approved perphenazine drug label, PMID 9333110,.

In the case of `CC(CN(C)C)CN1c2ccccc2CCc2ccccc21` (stereo not drawn) [Trimipramine], in series [1] (setting [6]), the “plasma concentrations (drug, or drug combined with its active metabolite)” value is “Patient's genotype is associated with increased plasma concentrations of trimipramine and desmethyltrimipramine”. Also, in series [1] (CYP2D6 Poor Metabolizer), the “plasma concentrations (drug, or drug combined with its active metabolite)” value was “Patient's genotype is associated with increased plasma concentrations of trimipramine and desmethyltrimipramine”; the “risk of adverse effects” value was “patient may be at increased risk of adverse effects, such as sedation (PMID 14646691)”. In series [1] (CYP2D6 Ultrarapid Metabolizer), the “plasma concentrations (drug, or drug combined with its active metabolite)” value is “decreased” and the “risk of therapeutic failure” value is given as “increased risk”.

Regarding `COc1ccc(C(CN(C)C)C2(O)CCCCC2)cc1` (stereo not drawn) [Venlafaxine], the “risk of adverse effects” value is 10233212, 10877013), which may increase risk of adverse effects (PMID 17803873). Consider alternative medications, in series [1] (setting [6]) and 18214456, 19593180, 21288052); therefore, the patient may have an increased risk of adverse effects at standard in series [1] (CYP2D6 Poor Metabolizer). Further, the “levels of the active metabolite, O-desmethylvenlafaxine, at standard doses” value in series [1] (CYP2D6 Poor Metabolizer) was “decreased”. The “plasma levels of the active metabolite, O-desmethylvenlafaxine, at standard doses” value in series [1] (CYP2D6 Ultrarapid Metabolizer) is listed as “Patient's genotype is associated with increased plasma levels of the active metabolite, O-desmethylvenlafaxine, and”.

On to `OCCN1CCN(CC/C=C2/c3ccccc3Sc3ccc(Cl)cc32)CC1` [Zuclopenthixol], for which the “plasma concentrations (drug, or drug combined with its active metabolite)” value in series [1] (setting [6]) is “Patient may have increased plasma concentrations of zuclopenthixol (PMID 1927573, 8946657, 12107620, 8612387,”; in series [1] (CYP2D6 Poor Metabolizer) it was “Patient's genotype is associated with increased plasma concentrations of zuclopenthixol (PMID 1927573, 8946657,”. Moreover, the “risk of adverse effects” value is reported as 20946203), which may increase risk of adverse effects (PMID 20175668, 12107620). Consider reducing the dose by in series [1] (setting [6]) and 12107620, 8612387, 20946203), which may increase risk of adverse effects (PMID 20175668, 12107620). Consider in series [1] (CYP2D6 Poor Metabolizer).

Turning to `Nc1nc(NC2CC2)c2ncn([C@H]3C=C[C@@H](CO)C3)c2n1` [abacavir], the hypersensitivity entry in series [5] (HLA-B*5701) is given as “associated”.

With `Oc1ncnc2[nH]ncc12` [allopurinol], the drug eruption result in series [5] (HLA-Aw33, B17/Bw58) is given as “associated”. Further, the “severe cutaneous adverse reactions” value in series [5] (HLA-B*5801) is on record as “associated”.

As to `Cc1c(N(C)CS(=O)(=O)[O-])c(=O)n(-c2ccccc2)n1C.[Na+]` [dipyrone], in series [5] (HLA-A24, B7, DQwI), the agranulocytosis result was “associated”.

On to `NNc1nncc2ccccc12` [hydralazine], for which the SLE result in series [5] (HLA-DR4) was “associated”.

For `c1ccc([C@H]2CN3CCSC3=N2)cc1` [levamisole], the agranulocytosis entry in series [5] (HLA-B27) was “associated”.

With `CC(=O)/N=c1/sc(S(N)(=O)=O)nn1C` [methazolamide], in series [5] (HLA-B59), the SJS result was “associated”.

For `CC(C)(S)[C@@H](N)C(=O)O` [penicillamine], the toxicity entry in series [5] (HLA-DR3) is recorded as “associated”.
